Patent US20260041679A1, “METHOD OF TREATING HYPERTENSION WITH THE ALDOSTERONE SYNTHASE INHIBITOR BAXDROSTAT” (CINCOR PHARMA, INC., priority 2022, published 2026)
Like-named read-outs stand apart in the source and are kept apart here.

Experiments:
[1] = Plasma PK of baxdrostat and baxdrostat-M in the metformin crossover study (Example 6A); type: in vivo, human; settings: single 10-mg dose of baxdrostat
Description: This study was designed as a phase 1, randomized, open-label, 2-period, crossover trial. Each subject participated in a screening period of up to 26 days followed by 2 inpatient treatment periods and a follow-up phone call. […] Plasma samples were extracted by protein precipitation with methanol, followed by analysis by LC-MS/MS with ESI(+) and MRM. Reversed-phase chromatographic separation with a mobile phase gradient of 20% to 90% was utilized, and total run time was approximately 5 minutes. […] PK parameters were calculated using noncompartmental methods with SAS software, version 9.4 (SAS Institute). […] Tmax; […] AUC0-t; AUC0-inf, AUC0-inf extrapolated; λz; and t1/2. Plasma AUC0-72 was assessed only for baxdrostat and baxdrostat-M. […] Urine PK parameters included Ae, renal clearance (calculated as Ae/AUC), and the fraction of dose excreted renally.

aldosterone synthase = target: T1, aldosterone synthase (Homo sapiens, UniProt P19099); experiment: Multiple ascending dose study, pharmacodynamics: plasma aldosterone, cortisol, electrolytes (Example 2); type: in vivo
T1 construct: Pharmacodynamic measurements included plasma aldosterone, cortisol, and electrolytes; endogenous in cells; host or cells: human subjects in vivo (healthy volunteers; resistant hypertension patients)
T1 sequence (P19099 25-503): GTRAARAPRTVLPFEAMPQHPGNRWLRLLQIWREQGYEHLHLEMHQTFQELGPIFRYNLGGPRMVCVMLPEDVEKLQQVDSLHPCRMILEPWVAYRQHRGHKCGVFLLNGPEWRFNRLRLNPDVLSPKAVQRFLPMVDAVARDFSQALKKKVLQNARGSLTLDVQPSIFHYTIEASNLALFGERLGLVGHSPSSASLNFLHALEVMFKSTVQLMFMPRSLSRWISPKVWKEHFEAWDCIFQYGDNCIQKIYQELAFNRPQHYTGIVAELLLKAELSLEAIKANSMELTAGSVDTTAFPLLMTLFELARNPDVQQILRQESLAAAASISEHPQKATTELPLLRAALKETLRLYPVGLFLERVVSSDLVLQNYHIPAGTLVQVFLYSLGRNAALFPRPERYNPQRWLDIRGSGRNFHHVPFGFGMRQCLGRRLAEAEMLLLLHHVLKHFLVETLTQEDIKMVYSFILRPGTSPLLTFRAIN
Description: (§1) This randomized, double-blind, placebo-controlled phase 1 study evaluated the safety, pharmacokinetics, and pharmacodynamics of multiple ascending doses of baxdrostat in healthy volunteers. Fifty-six subjects were randomized to receive oral baxdrostat (0.5, 1.5, 2.5, or 5.0 mg) or placebo once daily for ten days and were placed on either a low salt or normal salt diet for the duration of the study. In particular, subjects were randomized into 5 cohorts to receive baxdrostat or placebo once daily for 10 days. Cohorts 1 and 2 were placed on a low salt diet to stimulate aldosterone production and were administered 2.5 or 5.0 mg oral baxdrostat, respectively. Cohorts 1 and 2 also underwent an adrenocorticotropic hormone (ACTH) challenge to increase aldosterone and cortisol levels to evaluate the specificity of baxdrostat for targeting aldosterone synthase. Cohorts 3, 4, and 5 were placed on a normal salt diet and were administered 1.5, 2.5, or 0.5 mg oral baxdrostat, respectively. Blood samples were collected prior to and after dosing on days 1 and 10 for measurement of plasma baxdrostat concentrations to characterize single-dose and steady-state pharmacokinetics. Pharmacodynamic measurements included plasma aldosterone, cortisol, and electrolytes. Safety assessments included physical examination, electrocardiograms, orthostatic vital signs, and clinical laboratory evaluations.

[2] = Single ascending dose study, pharmacokinetics (Example 1); type: in vivo
Description: Eighty-eight healthy male volunteers completed the first-in-human study of baxdrostat. In part 1 of the trial, subjects received a single oral dose of baxdrostat ranging from 1 to 360 mg in order to evaluate safety, tolerability, PK, and pharmacodynamics (PD). Part 2 evaluated the PK of a single 3 mg intravenous dose of baxdrostat.

[3] = Safety in hepatic function study (Example 5); type: in vivo, human
Description: Subjects with moderate hepatic impairment (Child-Pugh Category B, n=10) and healthy controls (n=10) were each given a single 10 mg oral dose of baxdrostat. Subjects were matched by age, sex, body mass index, race, and smoking status. Serial blood and urine samples were collected to determine plasma and urine concentrations of baxdrostat for 7 days postdose. Safety was assessed based on adverse events, clinical laboratory evaluations, vital signs, electrocardiogram and physical examinations.

[4] = Study 121: serum electrolytes and eGFR; type: in vivo, human
Source text: Aldosterone plays a direct role in the pathogenesis of hypertension via increasing renal absorption of sodium and water while promoting excretion of potassium. There is the potential therefore for an aldosterone synthesis inhibitor to cause the electrolyte abnormalities of hyperkalemia or hyponatremia. Moreover, the decrease in SBP expected with aldosterone inhibitors will reduce blood flow through the afferent arterioles in the kidney, leading to an apparent decline in determination of eGFR. These potential perturbations in kidney physiology were closely monitored throughout the study via the measurement of serum electrolytes and eGFR.

[5] = Multiple ascending dose study, pharmacokinetics (Example 2); type: in vivo, human
Description: as §1

CCC(=O)N[C@@H]1CCCc2c(-c3ccc4c(c3)CCC(=O)N4C)cncc21 [baxdrostat, (R)—N-(4-(1-methyl-2-oxo-1,2,3,4-tetrahydroquinolin-6-yl)-5,6,7,8-tetrahydroisoquinolin-8-yl) propionamide]
AUC% extrapolated ([1]; human): 8.36% | AUC(0-t) ([1]; human, read-out: AUC0-24, Mean): 1660 ng·h/mL | AUC(0-t) ([1]; human, read-out: AUC0-72, GM): 2790 ng·h/mL | AUC(0-t) ([1]; human, read-out: AUC0-72, Mean): 2870 ng·h/mL | AUC(0-inf) ([1]; human, read-out: AUC0-inf, GM): 2920 ng·h/mL | AUC(0-inf) ([1]; human, read-out: AUC0-inf, Mean): 3030 ng·h/mL | Cmax ([1]; human, read-out: Cmax, GM): 117 ng/mL | Cmax ([1]; human, read-out: Cmax, Mean): 119 ng/mL | Tmax ([1]; human, read-out: Tmax, GM): 1.54 h | Tmax ([1]; human, read-out: Tmax, Mean): 1.68 h | AUC0-24, GM [1]: 1637.461 ng·h/mL | λz, GM [1]: 0.032 h⁻¹ | λz, Mean [1]: 0.033 h⁻¹ | plasma aldosterone, reduction (aldosterone synthase; Day 10): 51-73% | plasma aldosterone (aldosterone synthase; doses ≥1.5 mg, regardless of diet): dose-dependent reduction of plasma aldosterone | plasma cortisol (aldosterone synthase; once daily, 10 days): no meaningful impact on plasma cortisol | plasma sodium levels (aldosterone synthase; once daily, 10 days): mild dose-dependent decreases in plasma sodium levels | potassium levels (aldosterone synthase; once daily, 10 days): increases in potassium levels | half-life ([2]; human, plasma, oral, single dose, healthy male volunteers): 29 h | plasma levels of baxdrostat vs dose ([2]; single oral dose 1 to 360 mg): increased in a dose-proportional manner | clinical laboratory evaluations, vital signs, electrocardiograms, physical examinations ([3]; both groups): No clinically significant changes | TEAE deemed related to baxdrostat ([3]; normal hepatic function group): One TEAE of headache with moderate severity | deaths, serious TEAEs, study discontinuations ([3]; single 10 mg, both hepatic function groups): no deaths, serious treatment-emergent adverse events (TEAE), or study discontinuations | AEs of renal impairment ([4]; 0.5 mg): no cases | change in serum potassium from baseline to end of treatment, mean (standard deviation) ([4]; 0.5 mg): 0.19 (0.474) mEq/L | change in serum sodium from baseline to end of treatment, mean (SD) ([4]; 0.5 mg): −1.2 (2.73) mEq/L | patients with mild hyponatremia (serum sodium <130 mEq/L) ([4]; 0.5 mg): 1 patients | AEs of renal impairment ([4]; 1 mg): 3 | change in serum potassium from baseline to end of treatment, mean (standard deviation) ([4]; 1 mg): 0.36 (0.481) mEq/L | change in serum sodium from baseline to end of treatment, mean (SD) ([4]; 1 mg): −1.1 (3.03) mEq/L | patients with mild hyponatremia (serum sodium <130 mEq/L) ([4]; 1 mg): 7 patients | AEs of renal impairment ([4]; 2 mg): 1 | change in serum potassium from baseline to end of treatment, mean ([4]; 2 mg): 0.29 mEq/L | change in serum sodium from baseline to end of treatment, mean ([4]; 2 mg): −2.4 mEq/L | patients with mild hyponatremia (serum sodium <130 mEq/L) ([4]; 2 mg): 1 patients | mean eGFR ([4]; 0.5, 1, 2 mg QD): mild dose-dependent decrease in mean eGFR | overall rate of moderate hyperkalemia (potassium>6.0 mEq/L) ([4]; 2 highest dose groups): 2.2% | patients with moderate hyperkalemia (potassium>6.0 mEq/L) ([4]; 2 highest dose groups): 3 patients | moderate hypokalemia (potassium 3.0 to 2.5 mEq/L) ([4]; any baxdrostat dose groups): no cases | relationship between dose and serum calcium, serum phosphorus ([4]; in vivo): no apparent relationship | plasma levels of baxdrostat vs dose ([5]; 0.5 to 5.0 mg once daily): increased proportionally with ascending doses | time of peak concentrations after dosing ([5]; 0.5 to 5.0 mg once daily): ≤ 4 h | half-life ([5]; human, plasma, oral, 0.5 to 5.0 mg once daily): 26 to 31 h | absorption ([5]; oral, healthy subjects): rapidly absorbed
